Results taken from patent US10246733B2, “Assay and method for quantitating carbonic anhydrase activity and assessing red blood hemolysis” (CASE WESTERN RESERVE UNIVERSITY, priority 2015, dated 2019).

Legend:
hemolysate released CA = assay: Stopped-flow out-of-equilibrium CA assay on mouse hemolysate; type: biochemical
Excerpt: (§1) [drawing 3] causing pH to rise exponentially.
Adult C57/BL6 mice (8 to 16 weeks old) were sacrificed by cervical dislocation and blood was immediately collected by cardiac puncture using a 1-mL syringe (Becton, Dickinson and Co., Franklin Lakes, N.J., USA) with a 23 gauge PrecisionGlide needle (Becton, Dickinson and Co.). Prior to blood collection the syringe and needle were rinsed with 0.9% sodium heparin (H4784, Sigma-Aldrich). The blood was transferred to a 1.5-mL microcentrifuge tube, centrifuged in a Beckman Microfuge 16 Microcentrifuge (Beckman, Brea, Calif.) at 600×g for 10 min and the resulting supernatant and buffy coat were removed. To remove any residual extracellular Hb, the pelleted red blood cells (RBCs) were resuspended—in solution A to a 10% hematocrit (Hct)—and centrifuged at 600×g for 5 minutes. This process was repeated 4×. […]
A solution of isolated Hb was obtained by osmotic lysis of 20 μL of freshly prepared mouse RBCs (see above) in pure H2O (1:8 dilution), followed by centrifugation at 15000×g for 5 minutes in a Beckman Microfuge 16 Microcentrifuge, at RT room temperature. […] The supernatant (cleared of cellular debris) then was removed and transferred to a clean 1.5 mL Eppendorf tube for a The Hb concentration of the supernatant was spectroscopic determination of [Hb] using the visible absorbance spectroscopy as described above. […]

[1] = system: intact RBCs and hemolysate released CA; assay: Stopped-flow out-of-equilibrium CA assay on mixtures of intact and hemolyzed mouse RBCs; type: biochemical
Excerpt: as §1
Adult C57/BL6 mice (8 to 16 weeks old) were sacrificed by cervical dislocation and blood was immediately collected by cardiac puncture using a 1-mL syringe (Becton, Dickinson and Co., Franklin Lakes, N.J., USA) with a 23 gauge PrecisionGlide needle (Becton, Dickinson and Co.). Prior to blood collection the syringe and needle were rinsed with 0.9% sodium heparin (H4784, Sigma-Aldrich). The blood was transferred to a 1.5-mL microcentrifuge tube, centrifuged in a Beckman Microfuge 16 Microcentrifuge (Beckman, Brea, Calif.) at 600×g for 10 min and the resulting supernatant and buffy coat were removed. To remove any residual extracellular Hb, the pelleted red blood cells (RBCs) were resuspended—in solution A to a 10% hematocrit (Hct)—and centrifuged at 600×g for 5 minutes. This process was repeated 4×. After the final wash the RBCs were resuspended in solution A to a final Hct of ˜20% to ˜30%.
A solution of isolated Hb was obtained by osmotic lysis of 20 μL of freshly prepared mouse RBCs (see above) in pure H2O (1:8 dilution), followed by centrifugation at 15000×g for 5 minutes in a Beckman Microfuge 16 Microcentrifuge, at RT room temperature. This centrifugation step separated the cellular debris from the Hb containing supernatant. The supernatant (cleared of cellular debris) then was removed and transferred to a clean 1.5 mL Eppendorf tube for a The Hb concentration of the supernatant was spectroscopic determination of [Hb] using the visible absorbance spectroscopy as described above.
Simulated degrees of hemolysis (0-up to 100%) were achieved by mixing different proportions of freshly prepared, ostensibly “intact” RBCs and a lysate (representing 100% lysis), while maintaining the total Hb concentration at 5 μM (Table 2). For example, the mixture simulating ostensibly 0% hemolysis contained 5 μM Hb from RBCs. The mixture simulating ostensibly 50% hemolysis contained 2.5 μM Hb from RBCs and 2.5 μM Hb from the lysate supernatant (added to the RBC mixture in a dilution of ˜1:400 to ˜1:4000, depending on the [Hb]). […]

[2] = Calibration of pH indicator dye (pK from fluorescence-excitation ratio titration curve); type: physicochemical; conditions: 10° C., five sets of experiments, ± SD
Protocol: We calibrated the pH indicator dye pyranine at 10° C. by mixing in the SF device two identical solutions that were either the pH-7.50 “pH calibration solution for dye” listed in (Table 1), or variants thereof obtained by titrating the pH as outlined in a footnote to (Table 1). For each pH value X, we computed (I460/I415)pHx as described in the previous section. We fitted the following theoretical titration curve to our experimental data:
[formula] which normalizes the data to the value observed at pH 7.5, and forces the function to have a value of unity at this pH.
We used an iterative non-linear least-squares method to determine b and pK. […] The best-fit values were 7.11±0.01 (SD) for the pK, and 1.39±0.01(SD) for b. We used these values of pK and b and the values for ratio of (I460/I415) in each experiment to calculate pH.

[3] = cited from earlier work

Compound	krx (rate constant of HCO3- + H+ -> CO2 + H2O reaction) in presence of ACZ (hemolysate released CA; 10 μM ACZ in syringe opposite to hemolysate (5%-100% relative amount), 10° C., reduced to the uncatalyzed value)	time for pHo to reach ~7.5 with ACZ (hemolysate released CA; ACZ in solution opposite to hemolysate (FIG. 3D))	extracellular CA enzyme activity with ACZ ([1]; 10 μM ACZ in syringe opposite to RBCs)	krx (rate constant of HCO3- + H+ -> CO2 + H2O reaction) in presence of ACZ ([1]; 10 μM ACZ in syringe opposite to RBCs (5%-100% hemolysis of RBCs), 10° C., reduced to the uncatalyzed value)	time for pHo to reach ~7.5 with ACZ ([1]; ACZ in solution opposite to RBCs (FIG. 4D))	pK (best-fit value) [2]	PKa in previous study [3]
CC(=O)Nc1nnc(S(N)(=O)=O)s1 [ACZ, acetazolamide]	~0.02 s-^1	~200 s	totally blocked	~0.02 s-^1	~200 s	–	–
O=S(=O)([O-])c1cc(O)c2ccc3c(S(=O)(=O)[O-])cc(S(=O)(=O)[O-])c4ccc1c2c34.[Na+].[Na+].[Na+] [pyranine]	–	–	–	–	–	7.11±0.01	around 7.3
